This is an account of results in the supplement of paper PMC11061612.

Test [1] has as its system NCI-H520 (Squamous Cell Lung Carcinoma). Briefly: combination Emax (second highest fraction inhibited in the dose matrix, 72 h); higher = more inhibition; extreme values may be limits of the assay. The procedure, abridged: (§1)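 Bliss excess equals the observed combination effect minus the expected value EA + EB − EA·EB, where EA and EB are the effects of each agent alone. Combination Emax is the second-highest inhibition within the matrix. Inhibition was scaled from CellTiter-Glo 2.0 luminescence, with 0 set by vehicle wells and 1 by blank wells, after 72 hours of two-drug dosing of cells plated in 1536-well plates.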

The test system of test [2] is MN-60 (B-Lymphoblastic Leukemia). The description is as above. The procedure, abridged: as §1

In the case of `C[C@@H](Oc1cc(-c2cnn(C3CCNCC3)c2)cnc1N)c1c(Cl)ccc(F)c1Cl` [Crizotinib] + Cn1cnc2c(F)c(Nc3ccc(Br)cc3Cl)c(C(=O)NOCCO)cc21 [Selumetinib] (first compound max 10 µM, 7x7, partner max 10 µM), the figures for the “combination Emax” value in test [1] and in test [2] were 0.616 and 0.38, respectively.

With `N#Cc1cnc(Nc2cc(NC[C@H]3CNCCO3)c(C(F)(F)F)cn2)cn1` [SRA737] + C=CCn1c(=O)c2cnc(Nc3ccc(N4CCN(C)CC4)cc3)nc2n1-c1cccc(C(C)(C)O)n1 [AZD1775] (first compound max 10 µM, partner max 1 µM), the “combination Emax” value was 0.755 in test [1] and 0.642 in test [2].

For `O=C(c1cc(Cc2n[nH]c(=O)c3ccccc23)ccc1F)N1CCN(C(=O)C2CC2)CC1` [Olaparib] + CN(CC[C@H](CSC1=CC=CC=C1)NC2=C(C=C(C=C2)S(=O)(=O)NC(=O)C3=CC=C(C=C3)N4CCC(CC4)[C@H](C5=CC=CC=C5C6=CC=C(C=C6)Cl)O)S(=O)(=O)C(F)(F)F)CCO [AZD4320] (first compound max 10 µM, 7x7, partner max 1 µM), the entries for the “combination Emax” value in test [1] and in test [2] were 0.125 and 0.25, respectively.

With `C[C@@H]1COCCN1c1cc(C2([S@](C)(=N)=O)CC2)nc(-c2ccnc3[nH]ccc23)n1` [AZD6738] + C1CC(C1)(C(=O)[O-])C(=O)[O-].N.N.[Pt+2] [Carboplatin] (first compound max 10 µM, 7x7, partner max 10 µM), the “combination Emax” value was 0.674 in test [1] and 0.638 in test [2].

Regarding `Cc1c2c(nn1C)CSCc1cc(n(C)n1)CSc1cc(c3ccccc3c1)OCCCc1c(C(=O)O)n(C)c3c-2c(Cl)ccc13` [AZD5991] + CC(=O)O[C@H]1C(=O)[C@@]2(C)[C@H]([C@H](OC(=O)c3ccccc3)[C@]3(O)C[C@H](OC(=O)[C@H](O)[C@@H](NC(=O)c4ccccc4)c4ccccc4)C(C)=C1C3(C)C)[C@]1(OC(C)=O)CO[C@@H]1C[C@@H]2O [Paclitaxel] (first compound max 1 µM, 7x7, partner max 3 µM), the “combination Emax” value in test [1] was 0.769; in test [2] it was 0.539.

With `CN(CCO)CC[C@H](CSc1ccccc1)Nc1ccc(S(=O)(=O)NC(=O)c2ccc(N3CCC([C@@H](O)c4ccccc4-c4ccc(Cl)cc4)CC3)cc2)cc1S(=O)(=O)C(F)(F)F` [AZD4320] + CS(=O)(=O)CCNCc1ccc(-c2ccc3ncnc(Nc4ccc(OCc5cccc(F)c5)c(Cl)c4)c3c2)o1 [Lapatinib] (first compound max 1 µM, 7x7, partner max 10 µM), the “combination Emax” value came to 0.57 in test [1] and 0.206 in test [2].

Consider `O=C(c1cc(Cc2n[nH]c(=O)c3ccccc23)ccc1F)N1CCN(C(=O)C2CC2)CC1` [Olaparib] + COc1nnc2ccc(N3CCC(c4ccc(OCCN5CCN(C)C(=O)[C@H]5C)cc4)CC3)nn12 [AZD5153] (first compound max 10 µM, 7x7, partner max 1 µM), for which the results for the “combination Emax” value in test [1] and in test [2] were 0.591 and 0.733, respectively.

In the case of `C[C@@H](Nc1cc(F)cc(F)c1)c1cc(C(=O)N(C)C)cc2c(=O)cc(N3CCOCC3)oc12` [AZD8186] + CC(=O)c1c(C)c2cnc(Nc3ccc(N4CCNCC4)cn3)nc2n(C2CCCC2)c1=O [Palbociclib] (first compound max 10 µM, 7x7, partner max 10 µM), the “combination Emax” value was 0.688 in test [1] and 0.502 in test [2].

With `C[C@@H](Oc1cc(-c2cnn(C3CCNCC3)c2)cnc1N)c1c(Cl)ccc(F)c1Cl` [Crizotinib] + CC1=C(C(=CC=C1)Cl)NC(=O)C2=CN=C(S2)NC3=CC(=NC(=N3)C)N4CCN(CC4)CCO [Dasatinib] (first compound max 10 µM, 7x7, partner max 2 µM), the figures for the “combination Emax” value in test [1] and in test [2] were 0.659 and 0.494, respectively.

Take `CN(CCO)CC[C@H](CSc1ccccc1)Nc1ccc(S(=O)(=O)NC(=O)c2ccc(N3CCC([C@@H](O)c4ccccc4-c4ccc(Cl)cc4)CC3)cc2)cc1S(=O)(=O)C(F)(F)F` [AZD4320] + CC(=O)O[C@H]1C(=O)[C@@]2(C)[C@H]([C@H](OC(=O)c3ccccc3)[C@]3(O)C[C@H](OC(=O)[C@H](O)[C@@H](NC(=O)c4ccccc4)c4ccccc4)C(C)=C1C3(C)C)[C@]1(OC(C)=O)CO[C@@H]1C[C@@H]2O [Paclitaxel] (first compound max 1 µM, 7x7, partner max 3 µM): the “combination Emax” value was 0.944 in test [1] and 0.546 in test [2].

`N#Cc1cnc(Nc2cc(NC[C@H]3CNCCO3)c(C(F)(F)F)cn2)cn1` [SRA737] + O=c1[nH]cc(F)c(=O)[nH]1 [5-Fluorouracil] (first compound max 10 µM, 7x7, partner max 20 µM): the “combination Emax” value in test [1] is 0.588; in test [2] it was 0.436.

In the case of `CC1(C)CCC(CN2CCN(c3ccc(C(=O)NS(=O)(=O)c4ccc(NCC5CCOCC5)c([N+](=O)[O-])c4)c(Oc4cnc5[nH]ccc5c4)c3)CC2)=C(c2ccc(Cl)cc2)C1` [Venetoclax] + CS(=O)(=O)CCNCc1ccc(-c2ccc3ncnc(Nc4ccc(OCc5cccc(F)c5)c(Cl)c4)c3c2)o1 [Lapatinib] (first compound max 1 µM, 7x7, partner max 10 µM), the “combination Emax” value in test [1] was 0.296; in test [2], 0.111.

With `Cc1c2c(nn1C)CSCc1cc(n(C)n1)CSc1cc(c3ccccc3c1)OCCCc1c(C(=O)O)n(C)c3c-2c(Cl)ccc13` [AZD5991] + CS(=O)(=O)CCNCc1ccc(-c2ccc3ncnc(Nc4ccc(OCc5cccc(F)c5)c(Cl)c4)c3c2)o1 [Lapatinib] (first compound max 1 µM, 7x7, partner max 10 µM), the figures for the “combination Emax” value in test [1] and in test [2] were 0.435 and 0.158, respectively.

Regarding `O=C(c1cc(Cc2n[nH]c(=O)c3ccccc23)ccc1F)N1CCN(C(=O)C2CC2)CC1` [Olaparib] + Cc1c2c(nn1C)CSCc1cc(n(C)n1)CSc1cc(c3ccccc3c1)OCCCc1c(C(=O)O)n(C)c3c-2c(Cl)ccc13 [AZD5991] (first compound max 10 µM, 7x7, partner max 1 µM), the figures for the “combination Emax” value in test [1] and in test [2] were 0.104 and 0.22, respectively.

On to `O=C(c1cc(Cc2n[nH]c(=O)c3ccccc23)ccc1F)N1CCN(C(=O)C2CC2)CC1` [Olaparib] + CC1(C)CCC(CN2CCN(c3ccc(C(=O)NS(=O)(=O)c4ccc(NCC5CCOCC5)c([N+](=O)[O-])c4)c(Oc4cnc5[nH]ccc5c4)c3)CC2)=C(c2ccc(Cl)cc2)C1 [Venetoclax] (first compound max 10 µM, 7x7, partner max 1 µM), for which the “combination Emax” value is 0.119 in test [1] and 0.222 in test [2].

Regarding `C=CCn1c(=O)c2cnc(Nc3ccc(N4CCN(C)CC4)cc3)nc2n1-c1cccc(C(C)(C)O)n1` [AZD1775] + CCc1c2c(nc3ccc(O)cc13)-c1cc3c(c(=O)n1C2)COC(=O)[C@]3(O)CC [SN-38] (first compound max 1 µM, partner max 0.3 µM), the “combination Emax” value in test [1] amounted to 0.808; in test [2] it was 0.818.

Regarding `Cc1nc(-c2cn3c(n2)-c2ccc(-c4cnn(C(C)(C)C(N)=O)c4)cc2OCC3)n(C(C)C)n1` [Taselisib] + O=C(Nc1ccc2[nH]nc(-c3ccncc3)c2c1)[C@@H]1CCN(CC(=O)N2CCN(c3ccc(-c4ncccn4)cc3)CC2)C1 [SCH772984] (first compound max 10 µM, 7x7, partner max 5 µM), the results for the “combination Emax” value in test [1] and in test [2] were 0.638 and 0.31, respectively.
